Data from patent US20110039763A1, “TARGETED ANTIMICROBIAL MOIETIES” (C3 JIAN, INC., priority 2009, published 2011).
“Also recorded” adds a separate entry of the source.

System: microorganisms
Experiment: Targeting peptide binding to target microorganisms (Tables 3, 10, 12)
Conditions: microorganism(s) the targeting peptide binds; binding in aqueous buffers that varied with peptide solubility, preferably 1x PBS

Substance	Target(s)
1T-222 (RIEASLISAIMFSMFNAIVKFLQK; Peptide with targeting and/or antimicrobial activity)	F. nucleatum; also recorded: S. sanguinis
1T-237 (EDPVPNHFTLRRNKKEKPSKS; Peptide with targeting and/or antimicrobial activity)	S. sanguinis
1T-239 (ADDLLNKRLTDLIMENAETVKTIDLDNSD; Peptide with targeting and/or antimicrobial activity)	A. naeslundii; also recorded: S. gordonii; also recorded: S. mitis; also recorded: S. mutans; also recorded: S. oralis; also recorded: S. sanguinis
1T-242 (KQVQNTTLIICGTVLLGILFKSYLKSQKSV; Peptide with targeting and/or antimicrobial activity)	F. nucleatum; also recorded: S. sanguinis
1T-248 (IGGALNSCG; Peptide with targeting and/or antimicrobial activity)	S. sanguinis
1T-249 (VFSVLKHTTWPTRKQSWHDFISILEYSAFFALVIFIFDKLLTLGLAELLKRF; Peptide with targeting and/or antimicrobial activity)	F. nucleatum; also recorded: S. sanguinis
1T-250 (LVQGDTILIENHVGTPVKDDGKDCLIIREADVLAVVND; Peptide with targeting and/or antimicrobial activity)	S. mitis; also recorded: S. mutans; also recorded: S. oralis
1T-252 (MKKNLKRFYALVLGFIIGCLFVSILIFIGY; Peptide with targeting and/or antimicrobial activity)	F. nucleatum; also recorded: S. sanguinis
1T-256 (KGKSLMPLLKQINQWGKLYL; Peptide with targeting and/or antimicrobial activity)	S. sanguinis
1T-258 (TINIDDKVLDYLKKINSKAITIDLIGCAS; Peptide with targeting and/or antimicrobial activity)	A. naeslundii; also recorded: F. nucleatum; also recorded: P. gingivalis; also recorded: T. denticola; also recorded: S. mitis; also recorded: S. mutans; also recorded: S. oralis
1T-259 (EKLKKILLKLAVCGKAWYTL; Peptide with targeting and/or antimicrobial activity)	F. nucleatum; also recorded: P. gingivalis; also recorded: T. denticola; also recorded: S. mitis; also recorded: S. mutans; also recorded: S. oralis; also recorded: S. sanguinis
1T-260 (NILYFIHDENQWEPQKAEIFRGSIKHCAWLSS; Peptide with targeting and/or antimicrobial activity)	A. naeslundii; also recorded: P. gingivalis; also recorded: S. epidermidis; also recorded: S. gordonii; also recorded: S. mitis; also recorded: S. mutans; also recorded: S. oralis; also recorded: S. sanguinis
1T-261 (SFEKNKIENNLKIAQAYIYIKPKPRICQA; Peptide with targeting and/or antimicrobial activity)	F. nucleatum; also recorded: S. mutans; also recorded: S. oralis; also recorded: S. sanguinis
1T-264 (LEGKFYMAEDFDKTPECFKDYV; Peptide with targeting and/or antimicrobial activity)	S. sanguinis
1T-266 (RAGTWLVVDEIR; Peptide with targeting and/or antimicrobial activity)	S. sanguinis
1T-267 (RIKEERKNRSYKFFIWRLFDEKTGFI; Peptide with targeting and/or antimicrobial activity)	A. naeslundii; also recorded: F. nucleatum; also recorded: P. gingivalis; also recorded: T. denticola; also recorded: S. mitis; also recorded: S. mutans; also recorded: S. oralis; also recorded: S. sanguinis
1T-268 (PITPKKEKCGLGTYAPKNPVFSKSRV; Peptide with targeting and/or antimicrobial activity)	F. nucleatum; also recorded: S. mutans; also recorded: S. oralis; also recorded: S. sanguinis
1T-269 (PLYVAAVEKINTAKKH; Peptide with targeting and/or antimicrobial activity)	F. nucleatum; also recorded: S. mutans; also recorded: S. oralis; also recorded: S. sanguinis
